Converted amounts (≈) assume the structure as drawn. Values belong to the compound of their own block, whether it stands above or below them.
Key:
[1] = Inhibition of TryR (unknown origin) assessed as inhibition constant; design: species or system Bacteria
[2] = Inhibition of TryR (unknown origin) assessed as inhibition constant by FRET assay
Trypanosoma cruzi [3] = assay: Antiprotozoal activity against Trypanosoma cruzi MG strain epimastigotes; assay type: functional, organism-based
Trypanosoma cruzi [4] = assay: Antiprotozoal activity against Trypanosoma cruzi JEM strain epimastigotes; assay type: functional, organism-based
Trypanosoma cruzi [5] = assay: Antiprotozoal activity against Trypanosoma cruzi CL-B5 strain epimastigotes; assay type: functional, organism-based
Trypanosoma cruzi [6] = assay: Antiprotozoal activity against Trypanosoma cruzi CL-B5 strain amastigotes; assay type: functional, organism-based
Leishmania amazonensis = assay: Antiprotozoal activity against Leishmania amazonensis PH8 strain […] assessed as […] at 10 ug/ml relative to control; assay type: functional; settings: dose 10 µg/ml
Leishmania braziliensis [7] = assay: Antiprotozoal activity against Leishmania braziliensis 2903 strain […] assessed as […] at 10 ug/ml relative to control; assay type: functional; settings: dose 10 µg/ml
Leishmania donovani [8] = assay: Antiprotozoal activity against Leishmania donovani PP75 strain […] assessed as […] at 10 ug/ml relative to control; assay type: functional; settings: dose 10 µg/ml
Leishmania donovani [9] = assay: Antiprotozoal activity against Leishmania donovani LV9 strain amastigotes; assay type: functional, organism-based
Trypanosoma cruzi [10] = assay: Antiprotozoal activity against Trypanosoma cruzi […]; assay type: functional, organism-based
MRC5 [11] = assay: Anticancer activity against human MRC5 cells assessed as cell growth inhibition measured after 24 hrs by MTT assay; assay type: functional, cell-based; settings: MRC5, 24 h
Trypanosoma cruzi [12] = assay: Antiprotozoal activity against Trypanosoma cruzi infected in mouse Peritoneal macrophage cell assessed as growth inhibition at 1.6 uM measured after 4 days relative to control; assay type: functional; settings: 96 h, time 4 day
Bacteria = assay: Inhibition of TryS (unknown origin) at 10 uM relative to control
Trypanosoma cruzi [13] = assay: Antiprotozoal activity against Trypanosoma cruzi infected in Rhesus monkey LLC-MK2 cells; assay type: functional, organism-based
Trypanosoma cruzi [14] = assay: Antiprotozoal activity against Trypanosoma cruzi infected in human Red blood cell; assay type: functional, organism-based; settings: Erythrocyte
Leishmania mexicana = assay: Antiprotozoal activity against Leishmania mexicana infected in mouse J774 cells; assay type: functional, organism-based
Trypanosoma brucei [15] = assay: Trypanocidal activity against Trypanosoma brucei trypomastigotes; assay type: functional, organism-based
Leishmania donovani [16] = assay: Antiprotozoal activity against Leishmania donovani promastigote assessed as lethality at 10 uM relative to control; assay type: functional
Trypanosoma brucei [17] = assay: Antiprotozoal activity against Trypanosoma brucei […] assessed as lethality at 10 uM relative to control; assay type: functional
KB = assay: Anticancer activity against human KB cells assessed as cell growth inhibition; assay type: functional, cell-based
Leishmania donovani [18] = assay: Antiprotozoal activity against Leishmania donovani infected in mouse macrophage cell measured after 72 hrs; assay type: functional, organism-based
Trypanosoma brucei [19] = assay: Antiprotozoal activity against Trypanosoma brucei; assay type: functional, organism-based
Leishmania infantum [20] = assay: Antiprotozoal activity against Leishmania infantum MHOM/MA671TMAP263 axenic amastigotes assessed as growth inhibition measured after 5 day by MTT assay; assay type: functional, organism-based; settings: 120 h
Leishmania infantum [21] = assay: Antiprotozoal activity against Leishmania infantum MHOM/MA671TMAP263 promastigote assessed as growth inhibition measured after 5 day by MTT assay; assay type: functional, organism-based; settings: MHOM/MA671TMAP263, 120 h
HepG2 = assay: Anticancer activity against human HepG2 cells assessed as cell growth inhibition measured after 72 hrs by MTT assay; assay type: functional, cell-based; settings: HepG2, 72 h
Leishmania donovani [22] = assay: Antiprotozoal activity against Leishmania donovani MHOM/IN/00/DEV strain promastigotes assessed as growth inhibition measured after 72 hrs by MTT assay; assay type: functional, organism-based
Trypanothione reductase [23] = target: Trypanothione reductase (Trypanosoma cruzi, UniProt P28593); assay: Inhibition of Trypanosoma cruzi TryR expressed in escherichia coli SG5
[24] = tested on: Trypanosoma brucei rhodesiense; assay: Antiprotozoal activity against Trypanosoma brucei rhodesiense STIB900 strain assessed as trypanocidal activity; assay type: functional, organism-based
[25] = Anticancer activity against rat Myoblast cells assessed as cell growth inhibition; assay type: functional, cell-based
Trypanothione reductase [26] = target: Trypanothione reductase (Crithidia fasciculata, UniProt P39040); assay: Inhibition of Crithidia fasciculata TryR overexpressed in escherichia coli assessed as inhibition constant
Leishmania donovani [27] = assay: Antiprotozoal activity against Leishmania donovani MHOM/PE/84/LC26 amastigotes infected in mouse J774.2 cells measured after 72 hrs; assay type: functional, organism-based; settings: J774.2, 72 h
Leishmania infantum [28] = assay: Antiprotozoal activity against Leishmania infantum MCAN/ES/2001/UCM-10 amastigotes infected in mouse J774.2 cells measured after 72 hrs; assay type: functional, organism-based; settings: J774.2, 72 h
Leishmania donovani [29] = assay: Antiprotozoal activity against Leishmania donovani infected in mouse macrophage cell; assay type: functional, organism-based
Leishmania donovani [30] = assay: Leishmanicidal activity against Leishmania donovani; assay type: functional, organism-based
Trypanosoma cruzi [31] = assay: Antiprotozoal activity against Trypanosoma cruzi epimastigotes; assay type: functional, organism-based; settings: Trypanosoma cruzi
Leishmania braziliensis [32] = assay: Antiprotozoal activity against Leishmania braziliensis promastigotes; assay type: functional, organism-based
Leishmania braziliensis [33] = assay: Antiprotozoal activity against Leishmania braziliensis amastigotes; assay type: functional, organism-based
Leishmania chagasi = assay: Antiprotozoal activity against Leishmania chagasi amastigotes; assay type: functional, organism-based
Trypanosoma cruzi [34] = assay: Antiprotozoal activity against Trypanosoma cruzi amastigotes; assay type: functional, organism-based
MRC5 [35] = assay: Anticancer activity against human MRC5 cells assessed as cell growth inhibition; assay type: functional, cell-based
Leishmania infantum [36] = assay: Antiprotozoal activity against Leishmania infantum amastigotes measured after 7 days by microscopic analysis; assay type: functional, organism-based; settings: 168 h
Trypanosoma cruzi [37] = assay: Antiprotozoal activity against Trypanosoma cruzi amastigotes measured after 4 days; assay type: functional, organism-based; settings: 96 h
Trypanosoma brucei [38] = assay: Antiprotozoal activity against Trypanosoma brucei trypomastigotes measured after 4 days by MTT assay; assay type: functional, organism-based; settings: 96 h
Trypanosoma cruzi [39] = assay: Antiprotozoal activity against Trypanosoma cruzi measured after 24 hrs; assay type: functional, organism-based

Sequence of Trypanothione reductase (Crithidia fasciculata, UniProt P39040) (P39040 whole entry): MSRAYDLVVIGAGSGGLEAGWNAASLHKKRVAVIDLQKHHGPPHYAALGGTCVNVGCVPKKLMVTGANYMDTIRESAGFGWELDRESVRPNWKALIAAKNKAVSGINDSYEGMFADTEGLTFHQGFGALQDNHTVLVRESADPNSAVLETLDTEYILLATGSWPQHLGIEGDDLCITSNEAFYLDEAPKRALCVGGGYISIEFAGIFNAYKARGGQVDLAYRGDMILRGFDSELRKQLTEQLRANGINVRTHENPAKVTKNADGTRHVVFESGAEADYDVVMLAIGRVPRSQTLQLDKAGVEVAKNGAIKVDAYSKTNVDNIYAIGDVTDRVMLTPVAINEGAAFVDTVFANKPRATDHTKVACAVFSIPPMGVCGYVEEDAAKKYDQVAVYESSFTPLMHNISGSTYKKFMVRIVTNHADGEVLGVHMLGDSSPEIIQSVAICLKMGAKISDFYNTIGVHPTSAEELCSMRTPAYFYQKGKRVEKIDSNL
Sequence of Trypanothione reductase (Trypanosoma cruzi, UniProt P28593) (P28593 whole entry): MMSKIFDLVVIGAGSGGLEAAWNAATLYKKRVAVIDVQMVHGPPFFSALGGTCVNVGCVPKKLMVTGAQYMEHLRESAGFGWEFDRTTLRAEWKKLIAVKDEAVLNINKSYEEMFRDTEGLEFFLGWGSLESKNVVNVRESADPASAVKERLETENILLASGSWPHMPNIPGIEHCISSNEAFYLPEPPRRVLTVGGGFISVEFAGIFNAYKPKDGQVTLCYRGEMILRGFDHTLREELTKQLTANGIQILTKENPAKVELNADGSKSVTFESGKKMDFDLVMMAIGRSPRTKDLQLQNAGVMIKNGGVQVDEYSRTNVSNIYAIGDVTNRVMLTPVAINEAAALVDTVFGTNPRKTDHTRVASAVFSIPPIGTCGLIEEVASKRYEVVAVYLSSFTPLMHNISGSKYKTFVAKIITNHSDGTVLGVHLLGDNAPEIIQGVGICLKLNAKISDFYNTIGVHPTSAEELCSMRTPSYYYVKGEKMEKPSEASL

Ki [1]: 0.75 µM | Ki [2]: 0.75 µM
Structure (SMILES): O=C(NCCCNCCCCNCCCNC(=O)c1cnc2cc(C(F)(F)F)ccc2c1O)c1cnc2cc(C(F)(F)F)ccc2c1O

IC50 (Trypanosoma cruzi [3]): 10 µM | IC50 (Trypanosoma cruzi [4]): 10 µM | IC50 (Trypanosoma cruzi [5]): 2 µM | IC50 (Trypanosoma cruzi [6]): 2 µM
Structure (SMILES): CCCCCCCCCCCCCCC(CN)NC(=O)OC(C)(C)C (stereo unspecified)

IC50 (Leishmania donovani [9]): 4 µM
Structure (SMILES): CCN(CC)CCCCCCNc1cc(OC)cc2c(C)ccnc12 [SITAMAQUINE]
Activity (Leishmania amazonensis): 80% | Activity (Leishmania braziliensis [7]): 80% | Activity (Leishmania donovani [8]): 80%

IC50 (Trypanosoma cruzi [10]): 4.66 µM
Structure (SMILES): CCCCN(CCCC)CCCN

Structure (SMILES): Clc1ccc(CNCCCN2CCN(CCCNCc3ccc(Cl)cc3)CC2)cc1
IC50 (MRC5 [11]): 4.5 µM | inhibition at 1.6 µM (Trypanosoma cruzi [12]): 95%

inhibition (Bacteria): 22%
Structure (SMILES): NCCCCNCCCNC(=O)CN1C(=O)Cc2c([nH]c3ccc(Br)cc23)-c2ccccc21

IC50 (Trypanosoma cruzi [13]): 0.5 µM | IC50 (Trypanosoma cruzi [14]): 80 µM | IC50 (Leishmania mexicana): 0.01 µM
Structure (SMILES): CC(C)=CCC/C(C)=C/CNCCNC1C2CC3CC(C2)CC1C3 (stereo unspecified) [SQ109]

Ki [1]: 114 µM
Structure (SMILES): O=C1CC[C@]23/C=C/C(=O)NCCCCNCCCNC(=O)/C=C/c4ccc(c2c4)O[C@@H]3C1
IC50 (Trypanosoma brucei [15]): 65 µM

Structure (SMILES): COc1ccc2nc3cc(Cl)ccc3c(NCCNCCCNCCNc3c4ccc(Cl)cc4nc4ccc(OC)cc34)c2c1
Activity (Leishmania donovani [16]): 99% | Activity (Trypanosoma brucei [17]): 99%

IC50 (KB): 16.1 µM | IC50 (Trypanosoma brucei [19]): 0.36 µM
Structure (SMILES): O=C(O)CCCCCN1CSC(=S)N(CCCCCCN2CN(CCCCCC(=O)O)CSC2=S)C1
IC50 (Leishmania donovani [18]): 6.74 µM

Structure (SMILES): O=C1c2cccc3cccc(c23)C(=O)N1CCCNCCCNCCCCNCCCNCCCN1C(=O)c2cccc3cccc(c23)C1=O
IC50 (Leishmania infantum [20]): 12.3 µM | IC50 (Leishmania infantum [21]): 7.56 µM

IC50 (HepG2): 1.56 µM
Structure (SMILES): c1ccc2c(c1)cc1c(-c3ccc(CNCCCN4CCN(CCCNCc5ccc(-c6nc7ccccc7n7c6cc6ccccc67)cc5)CC4)cc3)nc3ccccc3n12
IC50 (Leishmania donovani [22]): 0.57 µM

IC50 (Trypanothione reductase [23]): 1 µM
Structure (SMILES): NCCCCN(CCCN)CCCNc1cc(Cl)ccc1Sc1ccccc1

Structure (SMILES): CN(C)CCCNc1cc(Cl)ccc1Sc1ccc(C(F)(F)F)cc1
IC50 [24]: 1.2 µM | IC50 [25]: 9.8 µM

Ki (Trypanothione reductase [26]): 85 µM
Structure (SMILES): NCCCNCCCCNCCCNC(=O)CCc1ccc(O)c(O)c1

IC50 (Leishmania donovani [27]): 20 µM | IC50 (Leishmania infantum [28]): 20 µM
Structure (SMILES): CN1CCCNc2c(c(=O)c2=O)NCCCN(C)CCCNc2c(c(=O)c2=O)NCCC1

Structure (SMILES): CCCCCCCCCCCCCCCCNc1c(NCC[N+](C)(C)C)c(=O)c1=O
IC50 (Leishmania donovani [29]): > 12 µM | IC50 (Leishmania donovani [30]): > 12 µM

IC50 (Trypanosoma cruzi [31]): 10 µM | IC50 (Leishmania braziliensis [32]): 10 µM | IC50 (Leishmania braziliensis [33]): 10 µM | IC50 (Leishmania chagasi): 10 µM | IC50 (Trypanosoma cruzi [34]): 10 µM
Structure (SMILES): CCCCCCCCCCNCCCCCCN

IC50 (Leishmania infantum [36]): < 1.56 µM | IC50 (Trypanosoma cruzi [37]): < 1.56 µM | IC50 (Trypanosoma brucei [38]): < 1.56 µM
Structure (SMILES): COc1ccc2nc3cc(Cl)ccc3c(NCCCN(CCCNc3c4ccc(Cl)cc4nc4ccc(OC)cc34)C(=O)C(NC(=O)OC(C)(C)C)C(C)C)c2c1 (stereo unspecified)
IC50 (MRC5 [35]): > 3.13 µM

IC50 (Trypanosoma cruzi [39]): 31.2 µg/mL (≈ 128 µM)
Structure (SMILES): CCCCCCCCCCC(O)CNCCN (stereo unspecified)
